The data set in a line: clinical. The settings on record: in vivo, iv. An excerpt: The drug-drug interaction study was a phase 1, single-center, multiarm, open-label, randomized, three-period crossover study. The objective was to evaluate the DDI potential and the PK of SPR741 coadministered with each of three partner antibiotics as well as the DDI and PK effects of three partner antibiotics administered alone and with SPR741. The study comprised a screening phase (day −28 to day −2), three treatment arms (day 1 to day 8 for each arm), and an end-of-study follow-up (day 9). Each subject participated in screening, one treatment arm, and the end-of-study follow-up. The maximum duration of participation for each subject was approximately 37 days. Subjects remained in the clinical unit from the day before dosing (day −1) to 24 h after the third and last dose period (day 8).
The DDI study consisted of three treatment arms with three dosing periods in each arm (days 1, 4, and 7). In random sequence, subjects received a single dose of study treatments with a 2-day washout period between each assigned treatment. In treatment arm 1, subjects received 400 mg of SPR741 i.v. over 1 h, 400 mg of SPR741 i.v. over 1 h plus 1.0 g of ceftazidime i.v. over 1 h, and 1.0 g of ceftazidime i.v. over 1 h. In treatment arm 2, subjects received 400 mg of SPR741 i.v. over 1 h, 400 mg of SPR741 i.v. over 1 h plus 4.5 g of piperacillin-tazobactam i.v. over 1 h, and 4.5 g of piperacillin-tazobactam i.v. over 1 h.
For both studies, maximum plasma concentration (Cmax), area under the concentration-time curve from time zero to the last measurable time point (AUC0-t), area under the concentration-time curve from time zero to infinity (AUC0-inf), time to maximum concentration (Tmax), terminal elimination rate constant (kel), terminal half-life (t1/2), terminal clearance (CL), and volume of distribution (V) were determined. PK parameters were determined using WinNonlin Phoenix, version 6.4.
For the SAD phase, blood samples were obtained predose (within 10 min), at 30 min following the start of infusion, at the end of infusion, and at 75, 90, 105, 120, and 150 min and 3, 4, 5, 6, 8, 10, 12, and 24 h following the start of infusion. For the MAD phase, blood was obtained predose (within 10 min), at 30 min following the start of infusion, at the end of infusion, and at 90 and 150 min and 3, 4, 5, 6, and 8 h following the start of infusion (day 1, first dose; day 14, last dose). Five additional blood samples were obtained at 10, 12, 24, 36, and 48 h following the start of infusion of the last dose (morning of day 14). For the DDI study, blood samples for determining plasma concentrations of SPR741 and each partner antibiotic were obtained predose (within −10 min), at 30 min, and at 1 h, 1 h 15 min, 1 h 30 min, 1 h 45 min, 2, 4, 8, 12, and 24 h postdose for each dose period. Plasma samples for drug concentration measurements were analyzed using a validated high-pressure liquid chromatography tandem mass spectrometry (HPLC-MS/MS) method. In brief, samples were spiked with a stable isotope-labeled internal standard and then extracted by protein precipitation before injection onto the HPLC-MS/MS system. Unique transitions were monitored for all test articles and internal standards. Plasma concentrations below the limit of quantitation were reported as 0.
In the SAD/MAD study, geometric means were calculated for AUC and Cmax values. Analyses using linear models were performed to assess dose proportionality (both single dose and multiple dose), time dependence, accumulation, and attainment of steady state (multiple dose). Dose proportionality was assessed using linear models for the SAD and MAD cohorts separately. […] Point estimates and 90% confidence intervals (CIs), using the residual mean square error obtained from the ANOVA, were constructed for the comparisons between treatments. The point and CI estimates were back-transformed to give estimates of the ratios (percentages) of the geometric LSMs and corresponding 90% CIs.

As for `CC(C)(O/N=C(\C(=O)N[C@@H]1C(=O)N2C(C(=O)[O-])=C(C[n+]3ccccc3)CS[C@H]12)c1csc(N)n1)C(=O)O` [Ceftazidime, ceftazidime], the “AUC0-inf, geometric LSM, reference treatment” value (shortened to “AUC0-inf, geometric LSM”) is recorded as 163,000 h·ng/ml; the AUC0-t is given as 162,000 ± 22,400 (13.8) ng·h/ml; the “AUC0-τ, geometric LSM, reference treatment” value (shortened to “AUC0-τ, geometric LSM”) is 163,000 h·ng/ml; the AUC(0-inf) was 163,000 ± 22,500 (13.8) ng·h/ml. Besides, the CL was 6.3 ± 0.8 (12.8) liters/h; the Cmax is given as 70,200 ± 5,790 (8.2) ng/ml; the “Cmax, geometric LSM, reference treatment” value was 70,300 ng/ml; the Tmax was 1.0 ± 0 (0) h. Besides, the V is recorded as 24.0 ± 3.1 (12.8) liters, the kel was 0.26 ± 0.01 (3.1) 1/h and the t1/2 was 2.7 ± 0.1 (3.1) h.

As for `CCN1CCN(C(=O)N[C@@H](C(=O)N[C@@H]2C(=O)N3[C@@H]2SC(C)(C)[C@@H]3C(=O)O)c2ccccc2)C(=O)C1=O` [Piperacillin, piperacillin], the “AUC0-inf, geometric LSM” value is recorded as 228,000 h·ng/ml; the AUC0-t was 240,000 ± 33,000 (13.7) ng·h/ml; the “AUC0-τ, geometric LSM” value is given as 228,000 h·ng/ml; the AUC(0-inf) is 240,000 ± 33,000 (13.7) ng·h/ml. The CL is 19.1 ± 3.0 (15.8) liters/h; the Cmax is reported as 154,000 ± 23,500 (15.2) ng/ml; the “Cmax, geometric LSM, reference treatment” value was 145,000 ng/ml; the Tmax was 1.0 ± 0 (1.2) h. Also, the V is on record as 60.7 ± 10.6 (17.4) liters, the kel is on record as 0.32 ± 0.02 (5.6) 1/h and the t1/2 was 2.2 ± 0.1 (5.7) h.

With `C[C@]1(Cn2ccnn2)[C@H](C(=O)O)N2C(=O)C[C@H]2S1(=O)=O` [Tazobactam, tazobactam], the “AUC0-inf, geometric LSM” value is 30,200 h·ng/ml; the AUC0-t is recorded as 32,000 ± 5,060 (15.8) ng·h/ml; the “AUC0-τ, geometric LSM” value is recorded as 30,200 h·ng/ml; the AUC(0-inf) is 32,000 ± 5,060 (15.8) ng·h/ml. Besides, the CL is 16.1 ± 3.0 (18.4) liters/h; the Cmax is on record as 18,500 ± 2,610 (14.1) ng/ml; the “Cmax, geometric LSM, reference treatment” value is given as 17,600 ng/ml; the Tmax is on record as 1.0 ± 0 (1.2) h. Also, the V is given as 41.6 ± 6.5 (15.6) liters, the kel is 0.40 ± 0.12 (30.8) 1/h and the t1/2 is 1.9 ± 0.4 (22.4) h.

The values are drawn from publication PMC6709486, “Safety, Tolerability, Pharmacokinetics, and Drug Interaction Potential of SPR741, an Intravenous Potentiator, after Single and Multiple Ascending Doses and When Combined with β-Lactam Antibiotics in Healthy Subjects” (Antimicrobial Agents and Chemotherapy, 2019).
